Tests used:
[1] = test system: Metarhizium robertsii (15013-1); experiment: Determination of fungicide sensitivity, conidia growth in liquid media; type: cell-based; conditions: 5,000 conidia in 0.5 ml YMA, 26° C., visual observation
Method: (§1) Conidia of Metarhizium robertsii (15013-1) and Metarhizium robertsii (23013-3) were produced by growing the fungus on potato dextrose agar plates for 1-2 weeks at 23° C. under continuous illumination from fluorescent lights. Conidia were harvested from the plate in water containing Tween-20 (0.01%) and counted using a hemacytometer. Fungicide sensitivity was determined by mixing 5,000 conidia in 0.5 ml of YMA (2 g yeast extract, 4 g malt extract per liter) liquid media containing varying concentrations of commercially available fungicides active against filamentous fungi in a 24 well plate. Plates were incubated for […] at 26° C. and then growth was assessed by visual observation with a stereomicroscope.

[2] = test system: Metarhizium robertsii (23013-3); experiment: as above; type: cell-based; conditions: 5,000 conidia in 0.5 ml YMA, 26° C., visual observation
Method: as §1

CO/C=C(/C(=O)OC)c1ccccc1Oc1cc(Oc2ccccc2C#N)ncn1 [Azoxystrobin]
growth of 15013-1 conidia compared to a control without any fungicide ([1]; Fungicide Concentration 3 uM): ++ (growth of about 20% or about 80% inhibition compared to a control without any fungicide)
growth of 15013-1 conidia compared to a control without any fungicide ([1]; Fungicide Concentration 10 uM): + (growth of about 10% or about 90% inhibition compared to a control without any fungicide)
growth of 15013-1 conidia compared to a control without any fungicide ([1]; Fungicide Concentration 30 uM): −
growth of 23013-3 conidia compared to a control without any fungicide ([2]; Fungicide Concentration 3 uM): + (growth of about 10% or about 90% inhibition compared to a control without any fungicide)
growth of 23013-3 conidia compared to a control without any fungicide ([2]; Fungicide Concentration 10 uM): −
growth of 23013-3 conidia compared to a control without any fungicide ([2]; Fungicide Concentration 30 uM): −

N#Cc1c[nH]cc1-c1cccc2c1OC(F)(F)O2 [Fludioxonil]
growth of 15013-1 conidia compared to a control without any fungicide ([1]; Fungicide Concentration 3 uM): + (growth of about 10% or about 90% inhibition compared to a control without any fungicide)
growth of 15013-1 conidia compared to a control without any fungicide ([1]; Fungicide Concentration 10 uM): + (growth of about 10% or about 90% inhibition compared to a control without any fungicide)
growth of 15013-1 conidia compared to a control without any fungicide ([1]; Fungicide Concentration 30 uM): + (growth of about 10% or about 90% inhibition compared to a control without any fungicide)
growth of 23013-3 conidia compared to a control without any fungicide ([2]; Fungicide Concentration 3 uM): + (growth of about 10% or about 90% inhibition compared to a control without any fungicide)
growth of 23013-3 conidia compared to a control without any fungicide ([2]; Fungicide Concentration 10 uM): + (growth of about 10% or about 90% inhibition compared to a control without any fungicide)
growth of 23013-3 conidia compared to a control without any fungicide ([2]; Fungicide Concentration 30 uM): + (growth of about 10% or about 90% inhibition compared to a control without any fungicide)

c1ccc2[nH]c(-c3cscn3)nc2c1 [Thiabendazole]
growth of 15013-1 conidia compared to a control without any fungicide ([1]; Fungicide Concentration 3 uM): ++++ (growth of about 50% or more compared to a control without any fungicide)
growth of 15013-1 conidia compared to a control without any fungicide ([1]; Fungicide Concentration 10 uM): ++++ (growth of about 50% or more compared to a control without any fungicide)
growth of 15013-1 conidia compared to a control without any fungicide ([1]; Fungicide Concentration 30 uM): ++++ (growth of about 50% or more compared to a control without any fungicide)
growth of 23013-3 conidia compared to a control without any fungicide ([2]; Fungicide Concentration 3 uM): +++ (growth of about 30% or about 70% inhibition compared to a control without any fungicide)
growth of 23013-3 conidia compared to a control without any fungicide ([2]; Fungicide Concentration 10 uM): ++++ (growth of about 50% or more compared to a control without any fungicide)
growth of 23013-3 conidia compared to a control without any fungicide ([2]; Fungicide Concentration 30 uM): ++++ (growth of about 50% or more compared to a control without any fungicide)
